Our source for the T/C values is PubChem BioAssay AID256 (DTP/NCI, 2004).

Inconclusive results and toxic doses are left out.

The subject of the test is CD2F1 mice, L1210 leukemia ip, survival T/C. Kind of test: NCI In Vivo Anticancer Drug Screen. Data for tumor model L1210 Leukemia (intraperitoneal) in CD2F1 (CDF1) mice. The following applies: higher = longer survival. A digest of the protocol: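 Tumor-bearing mice (transplanted tumor) were split into treated and vehicle control groups, and the measured endpoint of each treated group was divided by that of its vehicle controls.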

Setting [1] is: endpoint: mean survival time, dose: 200.0 mg/kg/injection, schedule: Q01DX009 (ip), vehicle: saline with Tween-80.
Setting [2] is: endpoint: mean survival time, dose: 400.0 mg/kg/injection, schedule: Q01DX009 (ip), vehicle: saline with Tween-80.
The mark [3] stands for this setting: endpoint: mean survival time, dose: 25.0 mg/kg/injection, schedule: Q01DX009 (ip), vehicle: other.
Where [4] appears, read: endpoint: mean survival time, dose: 50.0 mg/kg/injection, schedule: Q01DX009 (ip), vehicle: other.
[5] abbreviates: endpoint: mean survival time, dose: 100.0 mg/kg/injection, schedule: Q01DX009 (ip), vehicle: other.
The mark [6] stands for this setting: endpoint: mean survival time, dose: 200.0 mg/kg/injection, schedule: Q01DX009 (ip), vehicle: other.
Setting [7] is: endpoint: mean survival time, dose: 100.0 mg/kg/injection, schedule: Q04DX003 (ip), vehicle: saline with Tween-80.
Where [8] appears, read: endpoint: mean survival time, dose: 200.0 mg/kg/injection, schedule: Q04DX003 (ip), vehicle: saline with Tween-80.
Where [9] appears, read: endpoint: mean survival time, dose: 100.0 mg/kg/injection, schedule: Q01DX001 (ip), vehicle: saline with Tween-80.
The mark [10] stands for this setting: endpoint: mean survival time, dose: 200.0 mg/kg/injection, schedule: Q01DX001 (ip), vehicle: saline with Tween-80.
Where [11] appears, read: endpoint: mean survival time, dose: 400.0 mg/kg/injection, schedule: Q01DX001 (ip), vehicle: saline with Tween-80.
Where [12] appears, read: endpoint: mean survival time, dose: 100.0 mg/kg/injection, schedule: Q01DX009 (ip), vehicle: saline with Tween-80.
Setting [13] is: endpoint: mean survival time, dose: 50.0 mg/kg/injection, schedule: Q01DX009 (ip), vehicle: saline with Tween-80.

Turning to `CN(C)C(=O)Nc1ccc(Cl)cc1`, the T/C runs as follows: (endpoint: median survival time, dose: 12.5 mg/kg/injection, schedule: Q01DX009 (ip), vehicle: saline) 100 % of control; (endpoint: median survival time, dose: 25.0 mg/kg/injection, schedule: Q01DX009 (ip), vehicle: saline) 100 % of control; (endpoint: median survival time, dose: 50.0 mg/kg/injection, schedule: Q01DX009 (ip), vehicle: saline) 103 % of control; (endpoint: median survival time, dose: 100.0 mg/kg/injection, schedule: Q01DX009 (ip), vehicle: saline) 100 % of control; (endpoint: median survival time, dose: 200.0 mg/kg/injection, schedule: Q01DX009 (ip), vehicle: saline) 101 % of control; (endpoint: median survival time, dose: 400.0 mg/kg/injection, schedule: Q01DX009 (ip), vehicle: saline) 100 % of control.

On to `O=C(CCBr)NCNC(=O)CCBr`, for which the T/C is 152 % of control under setting [1] and 101 % of control under setting [2].

`CC(=O)NNC(=O)c1ccc(N(C)C)cc1`: the T/C (endpoint: mean survival time, dose: 12.5 mg/kg/injection, schedule: Q01DX009 (ip), vehicle: other) was 92 % of control; the T/C under setting [3] is 88 % of control; the T/C under setting [4] is 88 % of control; the T/C under setting [5] is 92 % of control; the T/C under setting [6] is 92 % of control.

With `O=c1[nH]c(=O)n(C2CC(O)C(CO)O2)cc1/C=C/c1ccccc1` (stereo not given), the T/C by setting is: (endpoint: mean survival time, dose: 6.25 mg/kg/injection, schedule: Q01DX005 (ip), vehicle: distilled water + Tween-80) 97 % of control; (endpoint: mean survival time, dose: 12.5 mg/kg/injection, schedule: Q01DX005 (ip), vehicle: distilled water + Tween-80) 103 % of control; (endpoint: mean survival time, dose: 25.0 mg/kg/injection, schedule: Q01DX005 (ip), vehicle: distilled water + Tween-80) 95 % of control; (endpoint: mean survival time, dose: 50.0 mg/kg/injection, schedule: Q01DX005 (ip), vehicle: distilled water + Tween-80) 95 % of control; (endpoint: mean survival time, dose: 100.0 mg/kg/injection, schedule: Q01DX005 (ip), vehicle: distilled water + Tween-80) 96 % of control.

On to `Oc1ccc(CC2=NCCc3cc(O)c(O)cc32)cc1O`, for which the T/C by setting is: (endpoint: mean survival time, dose: 5.0 mg/kg/injection, schedule: Q01DX001 (ip), vehicle: saline) 104 % of control; (endpoint: mean survival time, dose: 10.0 mg/kg/injection, schedule: Q01DX001 (ip), vehicle: saline) 98 % of control; (endpoint: mean survival time, dose: 20.0 mg/kg/injection, schedule: Q01DX001 (ip), vehicle: saline) 98 % of control; (endpoint: mean survival time, dose: 40.0 mg/kg/injection, schedule: Q01DX001 (ip), vehicle: saline) 100 % of control; (endpoint: mean survival time, dose: 80.0 mg/kg/injection, schedule: Q01DX001 (ip), vehicle: saline) 102 % of control.

`CCCCNCCCC`: for the setting “endpoint: mean survival time, dose: 100.0 mg/kg/injection, schedule: Q04DX003 (ip), vehicle: saline”, the T/C was 97 % of control.

Regarding `O=C(Nc1c(Oc2ccc(Cl)cc2)ccc(Cl)c1S(=O)(=O)O)Nc1c(Oc2ccc(Cl)c(Cl)c2)ccc(Cl)c1S(=O)(=O)O`, the T/C is 93 % of control (endpoint: mean survival time, dose: 100.0 mg/kg/injection, schedule: Q01DX001 (ip), vehicle: saline) and 88 % of control (endpoint: mean survival time, dose: 200.0 mg/kg/injection, schedule: Q01DX001 (ip), vehicle: saline).

For the molecule `O=C(O)Cc1ccncc1`, the T/C is 97 % of control under setting [7]; 100 % of control under setting [8]; 97 % of control (endpoint: mean survival time, dose: 400.0 mg/kg/injection, schedule: Q04DX003 (ip), vehicle: saline with Tween-80).

With `Cc1cc(O)c2c(c1)C(=O)c1cccc(O)c1C2=O`, the T/C (endpoint: mean survival time, dose: 6.25 mg/kg/injection, schedule: Q01DX001 (ip), vehicle: saline) was 115 % of control; the T/C (endpoint: mean survival time, dose: 12.5 mg/kg/injection, schedule: Q01DX001 (ip), vehicle: saline) was 112 % of control; the T/C (endpoint: mean survival time, dose: 25.0 mg/kg/injection, schedule: Q01DX001 (ip), vehicle: saline) was 102 % of control.

Turning to `O=C1CCC2(C=C(Br)C(=O)C(Br)=C2)O1`, the T/C was 98 % of control (endpoint: mean survival time, dose: 5.0 mg/kg/injection, schedule: Q01DX009 (ip), vehicle: saline with Tween-80); 103 % of control (endpoint: mean survival time, dose: 5.0 mg/kg/injection, schedule: Q04DX003 (ip), vehicle: saline with Tween-80); 105 % of control (endpoint: mean survival time, dose: 10.0 mg/kg/injection, schedule: Q04DX003 (ip), vehicle: saline with Tween-80); 101 % of control (endpoint: mean survival time, dose: 20.0 mg/kg/injection, schedule: Q04DX003 (ip), vehicle: saline with Tween-80).

With `CC1c2ccccc2C=CN1C` (stereo not given), the T/C was 95 % of control (endpoint: mean survival time, dose: 100.0 mg/kg/injection, schedule: Q04DX003 (ip), vehicle: saline sonified); 106 % of control (endpoint: mean survival time, dose: 200.0 mg/kg/injection, schedule: Q04DX003 (ip), vehicle: saline sonified); 105 % of control (endpoint: mean survival time, dose: 400.0 mg/kg/injection, schedule: Q04DX003 (ip), vehicle: saline sonified).

As to `Nc1nc2c(ncn2-c2ccc(O)cc2)c(=O)[nH]1`, the T/C runs as follows: under setting [9], 96 % of control; under setting [10], 87 % of control; under setting [11], 91 % of control.

Take `O=C(O)c1sc(C(=O)O)c(-c2ccccc2)c1-c1ccccc1`: the T/C (endpoint: mean survival time, dose: 100.0 mg/kg/injection, schedule: Q01DX009 (ip), vehicle: saline sonified) is 92 % of control; the T/C (endpoint: mean survival time, dose: 200.0 mg/kg/injection, schedule: Q01DX009 (ip), vehicle: saline sonified) was 90 % of control; the T/C (endpoint: mean survival time, dose: 400.0 mg/kg/injection, schedule: Q01DX009 (ip), vehicle: saline sonified) is 103 % of control.

Regarding `[CH3][Pb]([CH3])([CH3])[NH]C#N`, the T/C reads like this: (endpoint: mean survival time, dose: 2.5 mg/kg/injection, schedule: Q01DX009 (ip), vehicle: saline) 98 % of control; (endpoint: mean survival time, dose: 5.0 mg/kg/injection, schedule: Q01DX009 (ip), vehicle: saline) 87 % of control.

For the molecule `Cc1ccc([N+](=O)[O-])cc1NC(=O)Nc1cc([N+](=O)[O-])ccc1O`, the T/C under setting [12] was 91 % of control, the T/C under setting [1] was 96 % of control and the T/C under setting [2] was 107 % of control.

Consider `O=C1c2ccccc2-c2cc(Br)c(NC(Cl)Cl)cc21`, for which the T/C by setting is: under setting [9], 104 % of control; under setting [10], 106 % of control; under setting [11], 103 % of control.

For `O=N[O-].[Co].[N-]=C=S.[NH2-].[NH2-].[NH2-].[NH2-]`, the T/C runs as follows: (endpoint: mean survival time, dose: 12.5 mg/kg/injection, schedule: Q01DX009 (ip), vehicle: saline with Tween-80) 115 % of control; (endpoint: mean survival time, dose: 25.0 mg/kg/injection, schedule: Q01DX009 (ip), vehicle: saline with Tween-80) 115 % of control.

As for `C#CC1(OC(=O)Nc2ccccc2)CCCCC1`, the T/C runs as follows: (endpoint: mean survival time, dose: 100.0 mg/kg/injection, schedule: Q04DX002 (ip), vehicle: saline with Tween-80) 100 % of control; (endpoint: mean survival time, dose: 200.0 mg/kg/injection, schedule: Q04DX002 (ip), vehicle: saline with Tween-80) 92 % of control.

In the case of `CCC(CCC(C)C1CCC2C3CC=C4CC(I)CCC4(C)C3CCC12C)C(C)C` (stereo not given), the T/C was 90 % of control under setting [9], 90 % of control under setting [10] and 94 % of control under setting [11].

Regarding `O=CNc1cccc2ccc3cc4ccccc4cc3c12`, the T/C was 90 % of control under setting [13]; 88 % of control under setting [12]; 94 % of control under setting [7]; 93 % of control under setting [1]; 88 % of control under setting [8].

On to `Cc1ccc(CN(C)N=Nc2ccc(C(=O)O)cc2)cc1`, for which the T/C is 91 % of control under setting [3], 87 % of control under setting [4], 91 % of control under setting [5] and 87 % of control under setting [6].

On to `O=C(CNC(=O)Nc1cccc([N+](=O)[O-])c1)N/N=C/c1ccncc1`, for which the T/C under setting [13] is 89 % of control, the T/C under setting [12] was 89 % of control and the T/C under setting [1] was 93 % of control.

For `CC(=O)Nc1ccc(C(=O)CCl)cc1`, under setting [7], the T/C was 90 % of control.

In the case of `ON=C1c2cc(Br)ccc2-c2ccc(Br)cc21`, the T/C is 104 % of control (endpoint: mean survival time, dose: 50.0 mg/kg/injection, schedule: Q01DX001 (ip), vehicle: carboxymethylcellulose (CMC)); 102 % of control (endpoint: mean survival time, dose: 100.0 mg/kg/injection, schedule: Q01DX001 (ip), vehicle: carboxymethylcellulose (CMC)); 98 % of control (endpoint: mean survival time, dose: 200.0 mg/kg/injection, schedule: Q01DX001 (ip), vehicle: carboxymethylcellulose (CMC)); 102 % of control (endpoint: mean survival time, dose: 400.0 mg/kg/injection, schedule: Q01DX001 (ip), vehicle: carboxymethylcellulose (CMC)).

Take `C=CCSc1ncnc2c1c(Br)cn2C1OC(CO)C(O)C1O` (stereo not given): the T/C reads like this: (endpoint: mean survival time, dose: 75.0 mg/kg/injection, schedule: Q01DX001 (ip), vehicle: saline) 101 % of control; (endpoint: mean survival time, dose: 150.0 mg/kg/injection, schedule: Q01DX001 (ip), vehicle: saline) 107 % of control; (endpoint: mean survival time, dose: 300.0 mg/kg/injection, schedule: Q01DX001 (ip), vehicle: saline) 106 % of control.
